Assays:
CDK2 = CDK2 (UniProt P24941); experiment: Enzyme Assay
CDK2 (human) [1] = target: CDK2 (human) (UniProt P24941); experiment: Cell-Based Assay; conditions: hdf
CDK2 (human) [2] = target: CDK2 (human) (UniProt P24941); experiment: Cell-Based Assay; conditions: rko
CDK2 (human) [3] = target: CDK2 (human) (UniProt P24941); experiment: Cell-Based Assay

IC50 (CDK2) [nM] | IC50 (CDK2 (human) [1]) [nM] | IC50 (CDK2 (human) [2]) [nM] | IC50 (CDK2 (human) [3]; hdf-3) [nM] | IC50 (CDK2 (human) [3]; mda-mb-468) [nM] | IC50 (CDK2 (human) [3]; mes/sa) [nM] | IC50 (CDK2 (human) [3]; rko) [nM] | IC50 (CDK2 (human) [3]; hdf) [nM] | Structure (SMILES)
1 to 10 | > 5000 | 1100 to 5000 | > 5000 | > 5000 | > 5000 | 1100 to 5000 |  | CN(C)S(=O)(=O)c1ccc(N/C=C2\C(=O)Nc3ccc(-c4cnco4)cc32)cc1
1 to 10 | > 5000 | 600 to 1000 | 600 to 1000 | 600 to 1000 | 100 to 500 | 600 to 1000 | 1100 to 5000 | NS(=O)(=O)c1ccc(NN=C2C(=O)Nc3ccc(-c4cnco4)cc32)cc1
11 to 50 | > 5000 | > 5000 | > 5000 | 1100 to 5000 |  |  | > 5000 | O=C1Nc2ccc3ncsc3c2/C1=C/Nc1ccc2nn[nH]c2c1
51 to 100 | > 5000 | 100 to 500 | 1100 to 5000 |  | > 5000 | 100 to 500 | 600 to 1000 | CNS(=O)(=O)Cc1ccc(NN=C2C(=O)Nc3cc(C)c(O)c(C)c32)cc1
11 to 50 | > 5000 | 1100 to 5000 | 1100 to 5000 |  | 1100 to 5000 | > 5000 | > 5000 | CS(=O)(=O)Cc1ccc(N/C=C2\C(=O)Nc3ccc4ncsc4c32)cc1
1 to 10 | > 5000 | 1100 to 5000 | 1100 to 5000 |  |  |  |  | CCC(C)Cc1cccc2c1C(=NNc1ccc(S(N)(=O)=O)cc1)C(=O)N2 (stereo not given)
1 to 10 | > 5000 | 1100 to 5000 | 1100 to 5000 |  |  | > 5000 | > 5000 | CNS(=O)(=O)Cc1ccc(NN=C2C(=O)Nc3ccc4ncccc4c32)cc1
